Laboratory results: patent US8962844B2, “1,3,4-oxadiazole and 1,3,4-thiadiazole β-lactamase inhibitors” (priority 2012, dated 2015)
Counter-ions that a name gives are not always drawn.

Assays:
[1] = test system: bacterial strains that express the class D cephalosporinase OXA-15; test: Standard BLI potentiation MIC / synergy MIC (sMIC) assays run in the presence of a β-lactam, OXA-15 expressing strains; type: cell-based, E. coli; settings: BLI in combination with a β-lactam; comparison with Avibactam (comparator compound CCC)
Procedure, shortened: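 Isogenic E. coli DH10B carrying cloned β-lactamase genes on pBR322-derived plasmid (blaTEM-1 promoter, tetracycline 25 μg/mL) tested by CLSI broth microdilution in CAMHB. Test compound and β-lactam each diluted and combined; MIC reported in presence of β-lactam.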

[2] = test system: bacterial strains that express KPC β-lactamases; test: Standard BLI potentiation MIC / synergy MIC (sMIC) assays run in the presence of a β-lactam, KPC expressing strains; type: cell-based; settings: more active for at least one KPC strain and/or better spectrum of activity than Avibactam; BLI in combination with a β-lactam
Text: Unless otherwise indicated, the activity of the BLI compounds can be described by the MIC value obtained from a Synergy MIC assay or a BLI potentiation assay (e.g as described herein), both of which are run in the presence of a β-lactam.
A set of β-lactamase expressing isogenic E. coli strains was constructed by cloning a β-lactamase gene into a customized derivative of pBR322 (GenBank Accession Number J01749) and transforming the engineered plasmids into E. coli. The NdeI restriction site within the plasmid backbone of pBR322 was removed to generate pBR322 ΔNdeI. The pBR322 ΔNdeI vector itself, minus the blaTEM-1 gene, was amplified using two primers: (1) pBR-Pbla 5′-cgcatatgactettectttttcaatattattg-3, SEQ ID 1, a primer with an engineered NdeI restriction site at the 3′ end of the blaTEM-1 promoter and (2) pBR-vec-1 5′-[…]-3′, SEQ ID 2, a primer with an engineered BamHI restriction site at the 3′ end of the blaTEM-1 open reading frame. The chloramphenicol resistance gene, cat, was generated by PCR amplification from pKD3 (GenBank Accession Number AY048742) using primers with an engineered NdeI restriction site at the 5′ end (Pbla-cat 5′-[…]-3′, SEQ ID 3) and an engineered BamHI restriction site at the 3′ end (Vec-1-cat 5′-[…]-3′, SEQ ID 4) of the resistance gene. The two PCR products, pBR322 ΔNdeI and cat were ligated together generating pBR-CBST (pBR322 ΔNdeI ΔTEM-1::cat Seq. ID 5) which retains both the pBR322 tetracycline resistance cassette, tetA, and the plasmid origin of replication but the blaTEM-1 gene was replaced by the cat gene.
Using this engineering strategy a number of plasmids producing β-lactamase genes from different classes (see below) were generated using synthetic genes with an engineered NdeI restriction site at the 5′ end and BamHI restriction site at the 3′ end of each gene (GenScript). Both the synthetic β-lactamase genes and cat gene were ligated into the NdeI/BamHI sites of the pBR322 ΔNdeI PCR product and transformed into electrocompetent E. coli ElectroMax DH10B (Invitrogen/Life Technologies). E. coli DH10B harboring the recombinant plasmids were selected on LB agar (supplemented with 25 μg/mL tetracycline) and single isolated colonies were then inoculated into 5 mL LB media (supplemented with 25 μg/mL tetracycline), and incubated at 37° C. with aeration (250 rpm) for 18 hrs. The cultures were frozen back at −80° C. in 20% glycerol. The DNA sequence of the cloned β-lactamase genes was confirmed. The β-lactamase gene expression in the recombinant E. coli strains was driven by the blaTEM-1 promoter in the pBR-CBST plasmid and was characterized by MIC profiling of the E. coli recombinant strains against comparator β-lactam/BLI combinations in broth microdilution assay.
The experimental protocol was performed according to Clinical and Laboratory Standards Institute (CLSI) guidelines with modifications as described below (CLSI guidelines can be derived from the CLSI document M07-A9 published in January 2012: “Methods for Dilution Antimicrobial Susceptibility Tests for Bacteria That Grow Aerobically; Approved Standard-Ninth Edition”).
To prepare for MIC testing, frozen glycerol stocks of clinical isolates (Klebsiella pneumoniae, Eschericia coli, Enterobacter spp, Citrobacter spp, or Pseudomonas aeruginosa) were used to streak for isolated colonies on rich, non-selective, tryptic soy agar containing 5% sheep's blood (TSAB). Frozen glycerol stocks of laboratory engineered, isogenic E. coli strains, which contain cloned β-lactamase expressing plasmids were used to streak for isolated colonies on rich, selective LB agar supplemented with 25 μg/mL tetracycline to maintain the plasmid. All strains were incubated at 37° C. for 18-24 hrs.
On the day of testing, primary cultures were started by scraping off 5-10 colonies from the TSAB plates containing clinical strains or the tetracycline supplemented LB plates containing engineered strains. […]

| SMILES | activity against bacterial strains that express the class D cephalosporinase OXA-15, compared with Avibactam [1] | activity and/or spectrum of activity against bacterial strains that express KPC β-lactamases, compared with Avibactam [2] |
| --- | --- | --- |
| O=C1N2C[C@@H](CC[C@H]2c2nnc(CCCC3CNC3)o2)N1OS(=O)(=O)O [Compound 743, (2S,5R)-2-(5-(3-(azetidin-3-yl)propyl)-1,3,4-oxadiazol-2-yl)-7-oxo-1,6-diazabicyclo[3.2.1]octan-6-yl hydrogen sulfate] | more active than Avibactam | more active than Avibactam |
| O=C1N2C[C@@H](CC[C@H]2c2nnc(COC3CNC3)o2)N1OS(=O)(=O)O [Compound 744, (2S,5R)-2-(5-((azetidin-3-yloxy)methyl)-1,3,4-oxadiazol-2-yl)-7-oxo-1,6-diazabicyclo[3.2.1]octan-6-yl hydrogen sulfate] | more active than Avibactam | more active than Avibactam |
| O=C1N2C[C@@H](CC[C@H]2c2nnc(CCNC3CNC3)o2)N1OS(=O)(=O)O [Compound 745, (2S,5R)-2-(5-(2-(azetidin-3-ylamino)ethyl)-1,3,4-oxadiazol-2-yl)-7-oxo-1,6-diazabicyclo[3.2.1]octan-6-yl hydrogen sulfate] | more active than Avibactam | more active than Avibactam |
| N=C(N)N1CC(NCc2nnc([C@@H]3CC[C@@H]4CN3C(=O)N4OS(=O)(=O)O)o2)C1 [Compound 746, (2S,5R)-2-(5-(((1-carbamimidoylazetidin-3-yl)amino)methyl)-1,3,4-oxadiazol-2-yl)-7-oxo-1,6-diazabicyclo[3.2.1]octan-6-yl hydrogen sulfate] | more active than Avibactam | more active than Avibactam |
| N=C(N)N[C@H]1C[C@@H](c2nnc([C@@H]3CC[C@@H]4CN3C(=O)N4OS(=O)(=O)O)o2)C1 [Compound 749, (2S,5R)-2-(5-((1s,3R)-3-guanidinocyclobutyl)-1,3,4-oxadiazol-2-yl)-7-oxo-1,6-diazabicyclo[3.2.1]octan-6-yl hydrogen sulfate] | more active than Avibactam | more active than Avibactam |
| O=C1N2C[C@@H](CC[C@H]2c2nnc(C3CC4(CNC4)C3)o2)N1OS(=O)(=O)O [Compound 750, (2S,5R)-2-(5-(2-azaspiro[3,3]heptan-6-yl)-1,3,4-oxadiazol-2-yl)-7-oxo-1,6-diazabicyclo[3.2.1]octan-6-yl hydrogen sulfate] | more active than Avibactam | more active than Avibactam |
| N[C@H]1C[C@H](Cc2nnc([C@@H]3CC[C@@H]4CN3C(=O)N4OS(=O)(=O)O)o2)C1 [Compound 751, (2S,5R)-2-(5-(((1r,3S)-3-aminocyclobutyl)methyl)-1,3,4-oxadiazol-2-yl)-7-oxo-1,6-diazabicyclo[3.2.1]octan-6-yl hydrogen sulfate] | more active than Avibactam | more active than Avibactam |
| N=C(N)NC1CC(Cc2nnc([C@@H]3CC[C@@H]4CN3C(=O)N4OS(=O)(=O)O)o2)C1 (stereo partly drawn) [Compound 752, (2S,5R)-2-(5-((3-guanidinocyclobutyl)methyl)-1,3,4-oxadiazol-2-yl)-7-oxo-1,6-diazabicyclo[3.2.1]octan-6-yl hydrogen sulfate] | more active than Avibactam | more active than Avibactam |
